Residues, ends and D or L forms follow the SMILES beside them. No end group written: not given here.

A short description of series [1]: Organic cleavage conditions: diketopiperazine formation and disappearance of starting peptide, reverse phase chromatography. The class given is physicochemical. From the text: […] A molecular sieves for one week. […] The rate of cleavage was monitored by appearance of methionyl-proline diketopiperazine formation and disappearance of starting peptide as measured in reverse phase chromatographic analysis. Chromatography was achieved using a 0.46×25 cm column of Ultrosphere C18 in 0.1% trifluoroacetic acid (TFA), using an acetonitrile gradient to effect elution. The reaction was stopped at each analysis time point by ten-fold dilution with 0.1% trifluoroacetic acid. The diketopiperazine peak was collected and its identity confirmed by amino acid and mass spectral analysis.

Series [2] is described as follows: Protein stability under organic cleavage conditions, reverse phase HPLC. The settings on record: 40° C.; for Protein Stability, relative percent remaining: against an untreated external control.
Experimental: Analysis of the products obtained via the foregoing cleavage methods upon a representative sampling of peptides and proteins was assessed by high performance anion exchange and reverse phase chromatography. Anion exchange chromatography was conducted on a Mono Q column in a 0.05M Tris, pH 8.0 buffer containing 30% acetonitrile. Elution was provided using a linear gradient of sodium chloride. Reverse phase analysis was performed on a Zorbax C8, 150Å pore size column using an acetonitrile gradient in 0.1M ammonium phosphate at 45° C., pH 7.0.
Series [3] in a line: Protein stability under organic cleavage conditions, anion exchange HPLC. Type of series: physicochemical. The settings on record: 40° C.
Experimental: Anion exchange chromatography was conducted on a Mono Q column in a 0.05M Tris, pH 8.0 buffer containing 30% acetonitrile. Elution was provided using a linear gradient of sodium chloride. Reverse phase analysis was performed on a Zorbax C8, 150Å pore size column using an acetonitrile gradient in 0.1M ammonium phosphate at 45° C., pH 7.0.

On to `CSCC[C@H](N)C(=O)N1CCC[C@H]1C(=O)NCC(=O)NCC(N)=O` [Met--Pro--Gly--Gly--NH2] (H-MPGG-NH2), for which the “quantity of starting material remaining” value in series [1] (1 M HOAc/CH2 Cl2, 25° C., 0 h) turned out to be 100%; in series [1] (1 M HOAc/CH2 Cl2, 25° C., 2 h) it was 104%; in series [1] (1 M HOAc/CH2 Cl2, 25° C., 4 h), 96%; in series [1] (1 M HOAc/CH2 Cl2, 25° C., 6 h), 99%; in series [1] (1 M HOAc/CH2 Cl2, 25° C., 24 h), 80%; in series [1] (1 M HOAc/CH3 CN, 25° C., 0 h) it was 100%. For the same compound, the “quantity of starting material remaining” value in series [1] (1 M HOAc/CH3 CN, 25° C., 2 h) is recorded as 114%; in series [1] (1 M HOAc/CH3 CN, 25° C., 4 h) it was 105%; in series [1] (1 M HOAc/CH3 CN, 25° C., 6 h) it was 99%; in series [1] (1 M HOAc/CH3 CN, 25° C., 24 h), 66%; in series [1] (1 M HOAc/DMF, 25° C., 0 h) it was 100%; in series [1] (1 M HOAc/DMF, 25° C., 2 h), 88%. The “quantity of starting material remaining” value in series [1] (1 M HOAc/DMF, 25° C., 4 h) is on record as 71%; in series [1] (1 M HOAc/DMF, 25° C., 6 h), 57%; in series [1] (1 M HOAc/DMF, 25° C., 24 h), 11%; in series [1] (1 M HOAc/DMSO, determined at 40° C., 0 h), 100%; in series [1] (1 M HOAc/DMSO, determined at 40° C., 2 h), 73%; in series [1] (1 M HOAc/DMSO, determined at 40° C., 4 h), 56%. Also, the “quantity of starting material remaining” value is reported as 6% in series [1] (1 M HOAc/DMSO, determined at 40° C., 24 h); 100% in series [1] (1 M HOAc/MeOH, 25° C., 0 h); 101% in series [1] (1 M HOAc/MeOH, 25° C., 2 h); 99% in series [1] (1 M HOAc/MeOH, 25° C., 4 h); 99% in series [1] (1 M HOAc/MeOH, 25° C., 6 h); 97% in series [1] (1 M HOAc/MeOH, 25° C., 24 h). Moreover, the “quantity of starting material remaining” value amounted to 100% in series [1] (1 M HOAc/nPrOH, 25° C., 2 h); 97% in series [1] (1 M HOAc/nPrOH, 25° C., 4 h); 94% in series [1] (1 M HOAc/nPrOH, 25° C., 6 h); 72% in series [1] (1 M HOAc/nPrOH, 25° C., 24 h).
With “insulin Bchain Ssulfonate [B(SO3^- )2, reference compound]”, the “Protein Stability, relative percent remaining” value in series [2] (1 M HOAc/DMF, 2 h) is 97%; in series [2] (1 M HOAc/DMF, 24 h), 62%; in series [2] (1 M HOAc/DMSO, 2 h) it was 94%; in series [2] (1 M HOAc/DMSO, 24 h), 106%.
On to “APLEPEYPGDNATPEQMAQYAAELRRYINMLTRPRY-NH2 [bPP, bovine pancreatic polypeptide, reference compound]”, for which the “Protein Stability, relative percent remaining” value in series [2] (1 M HOAc/DMF, 2 h) stood at 42%; in series [2] (1 M HOAc/DMF, 24 h) it was 40%; in series [2] (1 M HOAc/DMF, 48 h), 32%; in series [2] (1 M HOAc/DMSO, 2 h), 52%; in series [2] (1 M HOAc/DMSO, 24 h), 90%; in series [2] (1 M HOAc/DMSO, 48 h) it was 86%.
With methionyl human growth hormone, the “Stability, determined by anion exchange HPLC” value in series [3] (0.33 M HOAc/DMF, 2 h) came to 78; in series [3] (0.33 M HOAc/DMF, 4 h), 68; in series [3] (0.33 M HOAc/DMF, 24 h) it was 34; in series [3] (0.33 M HOAc/DMSO, 2 h), 100; in series [3] (0.33 M HOAc/DMSO, 4 h), 99; in series [3] (0.33 M HOAc/DMSO, 24 h), 86. For the same compound, the “Stability, determined by anion exchange HPLC” value in series [3] (0.33 M HOAc/NMP, 2 h) is 90; in series [3] (0.33 M HOAc/NMP, 4 h) it was 89; in series [3] (0.33 M HOAc/NMP, 24 h), 75. For the same compound, the “Stability, determined by reverse phase HPLC” value in series [2] (0.33 M HOAc/DMF, 2 h) is 78; in series [2] (0.33 M HOAc/DMF, 4 h) it was 65; in series [2] (0.33 M HOAc/DMF, 24 h), 45; in series [2] (0.33 M HOAc/DMSO, 2 h), 91; in series [2] (0.33 M HOAc/DMSO, 4 h), 77; in series [2] (0.33 M HOAc/DMSO, 24 h) it was 75. Moreover, the “Stability, determined by reverse phase HPLC” value in series [2] (0.33 M HOAc/NMP, 2 h) was 85; in series [2] (0.33 M HOAc/NMP, 4 h) it was 70; in series [2] (0.33 M HOAc/NMP, 24 h), 77.
As to Proinsulin, the “Protein Stability, relative percent remaining” value in series [2] (1 M HOAc/DMF, 2 h) is listed as 86%; in series [2] (1 M HOAc/DMF, 24 h), 43%; in series [2] (1 M HOAc/DMF, 48 h) it was 30%; in series [2] (1 M HOAc/DMSO, 2 h), 97%; in series [2] (1 M HOAc/DMSO, 24 h), 70%; in series [2] (1 M HOAc/DMSO, 48 h), 86%.
As for “insulin Achain Ssulfonate [A(SO3^- )4, reference compound]”, the “Protein Stability, relative percent remaining” value in series [2] (1 M HOAc/DMF, 2 h) was determined as 100%; in series [2] (1 M HOAc/DMF, 24 h) it was 58%; in series [2] (1 M HOAc/DMSO, 2 h), 100%; in series [2] (1 M HOAc/DMSO, 24 h) it was 100%; in series [2] (1 M HOAc/DMSO, 48 h), 96%.
